We go through three compounds from US20260284018A1, “DUAL INHIBITORS OF DYRK1A AND 5-HT2 FOR TREATING A BRAIN DISORDER” (THE REGENTS OF THE UNIVERSITY OF CALIFORNIA, priority 2023, published 2026).

This experiment has as its system phospho-Tau. Description: Phospho-Tau assay using cultured rat cortical neurons (okadaic acid insult). The experiment is classed as cell-based. The conditions noted are these: 30 nM okadaic acid; for Tau phosphorylated at Ser202/Thr205: 50 μM pretreatment; for Tau phosphorylated at Ser202/Thr205 / Tau phosphorylated at Ser396: rat cortical neurons; for hyperphosphorylation of Tau (pTau accumulation) induced by okadaic acid / Tau phosphorylated at Ser396: pretreatment; for hyperphosphorylation of Tau (pTau accumulation) induced by okadaic acid: rat cortical cultures, FIG. 14 and 15B. The protocol: Phospho-Tau Assay Using Cultured Rat Cortical Neurons. Primary cortical cell cultures were prepared as described previously.^2 Briefly, pregnant Sprague Dawley dams were euthanized at embryonic day 18 (E18), and the cortices of the pups were harvested. Cells were plated on poly-d-lysine coated plates at 15,000 cells per well. Cultures were maintained at 37° C. under an atmosphere containing 5% CO2. Plating media consisted of 10% heat-inactivated fetal bovine serum (FBS; Fisher) 1% penicillin-streptomycin (Fisher), and 0.5 mM glutamine (Life Technologies) in Neurobasal (Fisher). After 16-24 h, media was exchanged for replacement media consisting of IX B27 supplement (Fisher), 1% penicillin-streptomycin, 0.5 mM glutamine, and 12.5 μM glutamate in Neurobasal. On DIV6 and DIV13, 50% of media was removed, and feeding media containing 1×B27 supplement, 1% penicillin-streptomycin, 0.5 mM glutamine in Neurobasal was added with an additional 20% volume added to account for evaporation. On DIV14, the volume of each well was adjusted to 180 μL. Next, 1000× solutions of compounds in DMSO were diluted 1:100 into Neurobasal and 20 μL of the resulting solutions was added to the appropriate wells (total dilution=1:1000, 0.1% DMSO). For wells that were not treated with compounds, DMSO was diluted 1:100 into Neurobasal and 20 μL of the resulting solution was added to the appropriate wells. All treatments were randomized. After 24 h, 20 μL was removed from each well. […] After 1 h, neurons were fixed by removing 80% of the media and replacing it with a volume of 4% aqueous paraformaldehyde (ThermoFisher) equal to 50% of the working volume of the well. Then, the cells were incubated at room temperature for 15 min before the fixative was aspirated and each well was washed twice with DPBS. Cells were permeabilized using 0.2% Triton X-100 (ThermoFisher) in DPBS for 15 min at room temperature without shaking. Plates were blocked with blocking buffer (2% bovine serum albumin and […] in DPBS) overnight at 4° C. Then, plates were incubated overnight at 4° C. with gentle shaking in antibody dilution buffer (ADB) (1% bovine serum albumin and […] in DBPS) containing a chicken anti-MAP2 antibody (1:10,000; EnCor, CPCA-MAP2), guinea pig anti-Tau antibody (1:1000; Synaptic Systems), mouse anti-phosphoTau (Ser202/Thr205) antibody (1:1000; Invitrogen), and rabbit anti-phosphoTau (Ser396) antibody (1:1000; Invitrogen). Plates were washed twice with DPBS and once with ADB before being incubated for 1 h at room temperature in ADB containing an anti-chicken IgY secondary antibody conjugated to Alexa Fluor™ Plus 800 (1:1000; Invitrogen), an anti-mouse IgG secondary antibody conjugated to Alexa Fluor™ Plus 680 (1:1000; Invitrogen), an anti-guinea pig IgG secondary antibody conjugated to Alexa Fluor™ 596 (1:1000; Invitrogen), and an anti-rabbit IgG secondary antibody conjugated to Alexa Fluor™ Plus 488 (1:1000; Invitrogen). Plates were washed three times with DBPS, and after the final wash, 100 μL of DPBS was added per well before imaging on a CellInsight™ CX7 High Content Analysis imager at 20× with 12 ROIs taken per well with no bias to location and no overlap of the ROIs. Images were analyzed using Cellnomics Scan software (version 6.6.2). The compartmental analysis assay was used to measure the average intensity of each channel per field and determine the reported intensity ratios.

For the compound `COc1ccc2c3ccnc(C)c3n(CCN(C)C)c2c1.O=C(O)/C=C/C(=O)O` [HTW_A_8 fumarate, 2-(7-methoxy-1-methyl-9H-pyrido[3,4-b]indol-9-yl)-N,N-dimethylethan-1-amine Fumarate Salt (2:3)], the “Tau phosphorylated at Ser202/Thr205” value is “can block an increase in Tau phosphorylated at Ser202/Thr205”, the “hyperphosphorylation of Tau (pTau accumulation) induced by okadaic acid” value is listed as “blocks hyperphosphorylation of Tau” and the “Tau phosphorylated at Ser396” value is recorded as “no reduction”.

In the case of `COc1ccc2c(c1)N(CCN(C)C)/C(=C/C(C)=O)S2.O=C(O)/C=C/C(=O)O` [HTW_B_14 fumarate, (Z)-1-(3-(2-(dimethylamino)ethyl)-5-methoxybenzo[d]thiazol-2(3H)-ylidene)propan-2-one Fumarate Salt (1:1)], the “Tau phosphorylated at Ser202/Thr205” value is “not observed” and the “Tau phosphorylated at Ser396” value was “no reduction”.

As to `COc1ccc2c(c1)[nH]c1c(C)nccc12` [Harmine, harmine], the “hyperphosphorylation of Tau (pTau accumulation) induced by okadaic acid” value is “prevents pTau accumulation in cortical neurons”.
